Data: PubChem BioAssay (NCI)
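Cultured in 96-well plates, cells were exposed to test compound for 48 hours across five concentrations. GI50 = concentration required for 50% inhibition of growth. TGI: total growth inhibition.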

Experiments:
Experiment in all cases: NCI anticancer screen, dose series, 48 h
[1] = test system: NCI/ADR-RES ovarian
[2] = test system: A549 NSCLC
[3] = test system: NCI-H23 lung
[4] = test system: CAKI-1 renal
[5] = test system: HOP-92 NSCLC
[6] = test system: MDA-N
[7] = test system: IGROV1 ovarian
[8] = test system: LOX IMVI melanoma
[9] = test system: HCT-15 colon
[10] = test system: BT-549 breast
[11] = test system: OVCAR-8 ovarian
[12] = test system: SF-539 CNS
[13] = test system: CCRF-CEM leukemia
[14] = test system: KM12 colon
[15] = test system: MDA-MB-231 breast
[16] = test system: UACC-257 melanoma
[17] = test system: SK-MEL-28 melanoma
[18] = test system: SK-MEL-5 melanoma
[19] = test system: ACHN renal
[20] = test system: PC-3 prostate
[21] = test system: DU-145 prostate
[22] = test system: SK-OV-3 ovarian
[23] = test system: COLO 205 colon
[24] = test system: OVCAR-3 ovarian
[25] = test system: MALME-3M melanoma
[26] = test system: NCI-H460 lung
[27] = test system: NCI-H226 lung
[28] = test system: HCT-116 colon
[29] = test system: MDA-MB-435
[30] = test system: OVCAR-4 ovarian
[31] = test system: RXF 393 renal
[32] = test system: A498 renal
[33] = test system: HL-60(TB) leukemia
[34] = test system: SR leukemia
[35] = test system: 786-0 renal
[36] = test system: NCI-H522 lung
[37] = test system: UACC-62 melanoma
[38] = test system: K-562 leukemia
[39] = test system: SNB-75 CNS
[40] = test system: SNB-19 CNS
[41] = test system: TK-10 renal
[42] = test system: RPMI-8226 leukemia
[43] = test system: U251 CNS
[44] = test system: UO-31 renal
[45] = test system: MCF7 breast
[46] = test system: EKVX NSCLC
[47] = test system: MOLT-4 leukemia
[48] = test system: SF-295 CNS
[49] = test system: OVCAR-5 ovarian
[50] = test system: HCC-2998 colon
[51] = test system: SW-620 colon
[52] = test system: M14 melanoma
[53] = test system: SK-MEL-2 melanoma
[54] = test system: HS 578T breast
[55] = test system: HT29 colon
[56] = test system: T-47D breast
[57] = test system: HOP-62 NSCLC
[58] = test system: SF-268 CNS
[59] = test system: SN12C renal

Question: CC1(C)OC(CCC#N)CN1C(=O)OCc1ccccc1 (stereo not drawn) was tested. Which TGI [1] did it give?
Answer: > 100 µM

Question: What about the TGI [2] of the same compound?
Answer: > 100 µM

Question: And the TGI [3]?
Answer: > 100 µM

Question: And the TGI [4]?
Answer: > 100 µM

Question: And the TGI [5]?
Answer: > 100 µM

Question: What about the TGI [6] of the same compound?
Answer: > 100 µM

Question: What about the TGI [7] of the same compound?
Answer: > 100 µM

Question: What about the TGI [8] of the same compound?
Answer: > 100 µM

Question: And the TGI [9]?
Answer: > 100 µM

Question: And the TGI [10]?
Answer: > 100 µM

Question: What about the TGI [11] of the same compound?
Answer: > 100 µM

Question: What about the TGI [12] of the same compound?
Answer: > 100 µM

Question: What about the TGI [13] of the same compound?
Answer: > 100 µM

Question: And the TGI [14]?
Answer: > 100 µM

Question: What about the TGI [15] of the same compound?
Answer: > 100 µM

Question: What about the TGI [16] of the same compound?
Answer: > 100 µM

Question: What about the TGI [17] of the same compound?
Answer: > 100 µM

Question: And the TGI [18]?
Answer: > 100 µM

Question: And the TGI [19]?
Answer: > 100 µM

Question: And the TGI [20]?
Answer: > 100 µM

Question: What about the TGI [21] of the same compound?
Answer: > 100 µM

Question: And the TGI [22]?
Answer: > 100 µM

Question: What about the TGI [23] of the same compound?
Answer: > 100 µM

Question: What about the TGI [24] of the same compound?
Answer: > 100 µM

Question: And the TGI [25]?
Answer: > 100 µM

Question: What about the TGI [26] of the same compound?
Answer: > 100 µM

Question: And the TGI [27]?
Answer: > 100 µM

Question: What about the TGI [28] of the same compound?
Answer: > 100 µM

Question: What about the TGI [29] of the same compound?
Answer: > 100 µM

Question: And the TGI [30]?
Answer: > 100 µM

Question: What about the TGI [31] of the same compound?
Answer: > 100 µM

Question: What about the TGI [32] of the same compound?
Answer: > 100 µM

Question: What about the TGI [33] of the same compound?
Answer: > 100 µM

Question: And the TGI [34]?
Answer: > 100 µM

Question: What about the TGI [35] of the same compound?
Answer: > 100 µM

Question: What about the TGI [36] of the same compound?
Answer: > 100 µM

Question: What about the TGI [37] of the same compound?
Answer: > 100 µM

Question: And the TGI [38]?
Answer: > 100 µM

Question: What about the TGI [39] of the same compound?
Answer: > 100 µM

Question: What about the TGI [40] of the same compound?
Answer: > 100 µM

Question: And the TGI [41]?
Answer: > 100 µM

Question: What about the TGI [42] of the same compound?
Answer: > 100 µM

Question: And the TGI [43]?
Answer: > 100 µM

Question: What about the TGI [44] of the same compound?
Answer: > 100 µM

Question: What about the TGI [45] of the same compound?
Answer: > 100 µM

Question: And the TGI [46]?
Answer: > 100 µM

Question: And the TGI [47]?
Answer: > 100 µM

Question: And the TGI [48]?
Answer: > 100 µM

Question: What about the TGI [49] of the same compound?
Answer: > 100 µM

Question: What about the TGI [50] of the same compound?
Answer: > 100 µM

Question: And the TGI [51]?
Answer: > 100 µM

Question: What about the TGI [52] of the same compound?
Answer: > 100 µM

Question: And the TGI [53]?
Answer: > 100 µM

Question: Which results are given for O=C(Nc1ccc(-n2ccc3c(NC(=O)c4ccccc4)ncnc32)cc1)c1ccc(Cl)c(C(F)(F)F)c1?
Answer: GI50 [1]: 3.1 µM; TGI [1]: 23.5 µM; GI50 [2]: 1.84 µM; TGI [2]: 12.6 µM; GI50 [3]: 13.1 µM; TGI [3]: 40.7 µM; GI50 [4]: 0.83 µM; TGI [4]: 11.1 µM; GI50 [5]: 8.16 µM; TGI [5]: 25.7 µM; GI50 [7]: 5.81 µM; TGI [7]: 31 µM; GI50 [8]: 0.321 µM; TGI [8]: 3.71 µM; GI50 [9]: 0.116 µM; TGI [9]: 6.77 µM; GI50 [54]: 4.96 µM; TGI [54]: 15.6 µM; GI50 [10]: 15.1 µM; TGI [10]: 48.8 µM; GI50 [11]: 2.1 µM; GI50 [12]: 3.63 µM; TGI [12]: > 54.7 µM; GI50 [13]: 0.849 µM; TGI [13]: 18.2 µM; GI50 [14]: 0.939 µM; TGI [14]: 7.71 µM; GI50 [15]: 1.93 µM; TGI [15]: 11.5 µM; GI50 [16]: 5.17 µM; TGI [16]: 24.5 µM; GI50 [55]: 0.752 µM; TGI [55]: 6.16 µM; GI50 [17]: 4.9 µM; TGI [17]: 15.3 µM; GI50 [18]: 0.603 µM; TGI [18]: 15.1 µM; GI50 [19]: 1.28 µM; TGI [19]: 15.2 µM; GI50 [20]: 3.57 µM; TGI [20]: 14.7 µM; GI50 [56]: 2.9 µM; TGI [56]: 13.8 µM; GI50 [57]: 3.45 µM; TGI [57]: 11.2 µM; GI50 [21]: 1.48 µM; TGI [21]: 8.46 µM; GI50 [22]: 11.1 µM; TGI [22]: 25.5 µM; GI50 [23]: 2.46 µM; TGI [23]: 17.2 µM; GI50 [58]: 2.17 µM; TGI [58]: 15.2 µM; GI50 [24]: 3.44 µM; TGI [24]: 9.37 µM; GI50 [25]: 6.41 µM; TGI [25]: 21.2 µM; GI50 [26]: 0.204 µM; TGI [26]: 4.8 µM; GI50 [59]: 3.8 µM; TGI [59]: 16.5 µM; GI50 [27]: 6.58 µM; TGI [27]: 25.1 µM; GI50 [28]: 0.536 µM; TGI [28]: 7.26 µM; GI50 [29]: 2.12 µM; TGI [29]: 10.3 µM; GI50 [30]: 2.63 µM; TGI [30]: 9.42 µM; GI50 [31]: 4.74 µM; TGI [31]: 15.4 µM; GI50 [32]: 13 µM; TGI [32]: 29.4 µM; GI50 [33]: 4.99 µM; TGI [33]: > 52.8 µM; GI50 [34]: 0.145 µM; TGI [34]: > 20.1 µM; GI50 [35]: 5.02 µM; TGI [35]: 23.6 µM; GI50 [36]: 3.02 µM; TGI [36]: 13.3 µM; GI50 [37]: 0.947 µM; TGI [37]: 12.2 µM; GI50 [38]: 0.42 µM; TGI [38]: > 35 µM; GI50 [39]: 1.55 µM; TGI [39]: 11.4 µM; GI50 [40]: 4.21 µM; TGI [40]: 17.8 µM; GI50 [41]: 5.17 µM; TGI [41]: 12.9 µM; GI50 [42]: 1.63 µM; TGI [42]: 29 µM; GI50 [43]: 0.462 µM; TGI [43]: 5.75 µM; GI50 [44]: 7.13 µM; TGI [44]: 23.7 µM; GI50 [45]: 1.91 µM; TGI [45]: 15.6 µM; GI50 [46]: 5.66 µM; TGI [46]: 25.4 µM; GI50 [47]: 1.38 µM; TGI [47]: > 32 µM; GI50 [48]: 1.91 µM; TGI [48]: 20 µM; GI50 [49]: 3.87 µM; TGI [49]: 22.5 µM; GI50 [50]: 4.5 µM; TGI [50]: 23.5 µM; GI50 [51]: 1.29 µM; TGI [51]: 6.21 µM; GI50 [52]: 1.37 µM; TGI [52]: 9.47 µM; GI50 [53]: 2.36 µM; TGI [53]: 8.68 µM
